Molecules are shown by their SMILES.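 Protocol summary: plate cells (96-well), add compound at 5 concentrations, incubate 48 h, interpolate endpoints linearly. GI50 is the concentration that inhibits growth by half.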 Activity calls are given as the source filed them. Cut-off read from the data, not from the text of the source: active = GI50 up to about 1.1 µM and inactive = higher.

Test systems include 786-0; A549; EKVX; HCT-116; HCT-15; HOP-92; HT-29; K562; LOX IMVI; MDA-MB-435; MDA-N; NCI-H460; OVCAR-3; OVCAR-4; PC-3; SF-295; SF-539; SK-OV-3; UO-31; COLO 205.
Holding throughout (assay): NCI anticancer screen, dose series, 48 h

As to `Cc1nc(C(N)=S)sc1C(=O)C/C(=N/N)C(=O)Nc1cccc(Cl)c1C`, the GI50 with 786-0 is > 100 µM (inactive); with A549, > 100 µM (inactive); in the assay on EKVX, > 100 µM (inactive); in the assay on HCT-116 it was > 100 µM (inactive); in the assay on HCT-15, > 100 µM; in the assay with HOP-92, > 100 µM (inactive). The GI50 with HT-29, in the assay on K562, in the assay on LOX IMVI, with MDA-MB-435, with MDA-N and with NCI-H460 was > 100 µM (inactive) in each case. In addition, the GI50 with OVCAR-3, in the assay on OVCAR-4, in the assay on PC-3, with SF-295, in the assay on SF-539 and with SK-OV-3 was > 100 µM (inactive) each time. The GI50 in the assay with UO-31 was > 100 µM (inactive).
Turning to `Cn1ncc(NCCn2cnc3c2c(=O)n(C)c(=O)n3C)c(Cl)c1=O`, the GI50 in the assay with 786-0 is > 100 µM (inactive); in the assay on A549, > 100 µM (inactive); with COLO 205, > 100 µM (inactive); in the assay with EKVX, > 100 µM (inactive); with HCT-116 it was > 100 µM (inactive); with HCT-15, > 100 µM. Moreover, the GI50 in the assay with HOP-92, with HT-29, in the assay on K562, in the assay with LOX IMVI, in the assay with MDA-MB-435 and with MDA-N was > 100 µM (inactive) each time. Moreover, the GI50 with NCI-H460, with OVCAR-3, with OVCAR-4, with PC-3, with SF-295 and in the assay on SF-539 was > 100 µM (inactive) each time. The GI50 in the assay on SK-OV-3 and in the assay on UO-31 was > 100 µM (inactive) throughout.
`CC(=O)N(CN1C(=O)CCC1C(=O)O)c1ccccc1Cl` (stereo not drawn): the GI50 in the assay with 786-0 is > 100 µM (inactive); in the assay with A549 it was > 100 µM (inactive); with COLO 205, > 100 µM (inactive); in the assay on EKVX, > 100 µM (inactive); in the assay with HCT-116, > 100 µM (inactive); with HCT-15 it was > 100 µM. Besides, the GI50 in the assay on HOP-92, with HT-29, in the assay with K562, in the assay with LOX IMVI, in the assay on MDA-MB-435 and in the assay with MDA-N was > 100 µM (inactive) in each case. Further, the GI50 in the assay on NCI-H460, in the assay on OVCAR-3, in the assay on OVCAR-4, in the assay on PC-3, with SF-295 and in the assay on SF-539 was > 100 µM (inactive) each time. Also, the GI50 in the assay with SK-OV-3 and with UO-31 was > 100 µM (inactive) throughout.
As for `COc1c(C2(c3ccc(F)cc3)SCCCS2)c(=O)c1=O`, the GI50 in the assay with 786-0 is > 100 µM (inactive); with A549 it was > 100 µM (inactive); in the assay on COLO 205 it was > 100 µM (inactive); with EKVX it was > 100 µM (inactive); with HCT-116, > 100 µM (inactive); with HCT-15, > 100 µM. Also, the GI50 in the assay with HOP-92, in the assay on HT-29, with K562, in the assay with LOX IMVI, in the assay on MDA-MB-435 and in the assay with MDA-N was > 100 µM (inactive) each time. Further, the GI50 in the assay with NCI-H460, in the assay with OVCAR-3, in the assay with OVCAR-4, in the assay on PC-3, with SF-295 and in the assay on SF-539 was > 100 µM (inactive) throughout. Also, the GI50 in the assay with SK-OV-3 and in the assay on UO-31 was > 100 µM (inactive) throughout.
As for `Fc1ccc(Nc2nc(Cl)c3nc[nH]c3n2)cc1Cl`, the GI50 was 86.9 µM (inactive) in the assay on 786-0; > 100 µM (inactive) in the assay with A549; > 100 µM (inactive) in the assay on COLO 205; 67.8 µM (inactive) with EKVX; > 100 µM (inactive) with HCT-116; > 100 µM in the assay on HCT-15. Besides, the GI50 in the assay on HOP-92 was > 100 µM (inactive); in the assay on HT-29, > 100 µM (inactive); in the assay on LOX IMVI it was 75.3 µM (inactive); in the assay with MDA-MB-435 it was > 100 µM (inactive); in the assay with MDA-N, > 100 µM (inactive); in the assay with NCI-H460 it was 58.9 µM (inactive). Moreover, the GI50 with OVCAR-3 is > 100 µM (inactive); with OVCAR-4 it was > 100 µM (inactive); with PC-3 it was > 100 µM (inactive); with SF-295 it was > 100 µM (inactive); with SF-539, 45.5 µM (inactive); with SK-OV-3 it was 87.1 µM (inactive). Moreover, the GI50 in the assay with UO-31 is 4.74 µM (inactive).
For the molecule `CCOC(=O)c1c(N2CCCC2)ncn(-c2ccccc2)c1=S`, the GI50 is > 100 µM (inactive) in the assay with 786-0; > 100 µM (inactive) in the assay on A549; > 100 µM (inactive) in the assay on COLO 205; > 100 µM (inactive) in the assay on EKVX; > 100 µM (inactive) with HCT-116; > 100 µM in the assay with HCT-15. Moreover, the GI50 in the assay on HOP-92, in the assay with HT-29, in the assay with K562, in the assay with LOX IMVI, in the assay with MDA-MB-435 and in the assay with MDA-N was > 100 µM (inactive) throughout. Moreover, the GI50 in the assay with NCI-H460 is > 100 µM (inactive); with OVCAR-3, 49.4 µM (inactive); in the assay on OVCAR-4, > 100 µM (inactive); in the assay with PC-3 it was > 100 µM (inactive); with SF-295, > 100 µM (inactive); in the assay on SF-539 it was > 100 µM (inactive). Besides, the GI50 in the assay with SK-OV-3 and in the assay on UO-31 was > 100 µM (inactive) in each case.
As for `CC1OC(OC2C(O[C@H]3CC[C@@]4(C)C(=CC[C@H]5[C@@H]6C[C@@H]7O[C@]8(CC[C@@H](CO)CO8)[C@@H](C)[C@@H]7[C@@]6(C)CC[C@@H]54)C3)OC(CO)C(O)C2OC2OC(CO)C(O)C(O)C2O)C(O)C(O)C1O` (stereo partly drawn), the GI50 in the assay with 786-0 is 1.9 µM (inactive); with A549, 2.07 µM (inactive); in the assay with COLO 205, 1.88 µM (inactive); in the assay on EKVX, 2.07 µM (inactive); in the assay with HCT-116, 1.65 µM (inactive); in the assay with HCT-15, 1.91 µM. Moreover, the GI50 with HOP-92 was 1.76 µM (inactive); in the assay on HT-29, 2.1 µM (inactive); with K562, 1.71 µM (inactive); in the assay with LOX IMVI, 1.85 µM (inactive); in the assay on MDA-MB-435, 2.01 µM (inactive); with MDA-N it was 1.68 µM (inactive). The GI50 was 1.78 µM (inactive) with NCI-H460; 1.91 µM (inactive) with OVCAR-4; 1.9 µM (inactive) with PC-3; 1.6 µM (inactive) in the assay with SF-539; 2.62 µM (inactive) in the assay on SK-OV-3; 2.52 µM (inactive) with UO-31.
With `COC(=O)C(=O)C(C(=O)C(=O)Nc1ccc(C)c(C)c1)c1nc2ccc([N+](=O)[O-])cc2nc1O` (stereo not drawn), the GI50 is > 100 µM (inactive) in the assay with 786-0; > 100 µM (inactive) in the assay with A549; 99.5 µM (inactive) in the assay with EKVX; > 100 µM (inactive) with HCT-116; > 100 µM in the assay on HCT-15; > 100 µM (inactive) in the assay on HOP-92. The GI50 with HT-29, in the assay on K562, in the assay on LOX IMVI, in the assay with MDA-MB-435, in the assay with MDA-N and in the assay with NCI-H460 was > 100 µM (inactive) throughout. Further, the GI50 in the assay on OVCAR-3, in the assay on OVCAR-4, in the assay on PC-3, with SF-295, in the assay with SF-539 and with SK-OV-3 was > 100 µM (inactive) each time. In addition, in the assay on UO-31, the GI50 was 68.9 µM (inactive).
With `NC(=O)c1csc(C2OC(CO)C(O)C2O)n1` (stereo not drawn), the GI50 in the assay on 786-0 was 21.8 µM (inactive); with A549 it was 102 µM (inactive); in the assay with COLO 205, 7.45 µM (inactive); in the assay on EKVX it was 543 µM (inactive); with HCT-116, 22.6 µM (inactive); with HCT-15, 4.14 µM. The GI50 with HOP-92 is 115 µM (inactive); with HT-29, 40.3 µM (inactive); in the assay on K562, 4.26 µM (inactive); in the assay with LOX IMVI it was 267 µM (inactive); in the assay on MDA-MB-435 it was 57.9 µM (inactive); with MDA-N, 35.1 µM (inactive). Besides, the GI50 is 225 µM (inactive) with NCI-H460; 19.6 µM (inactive) in the assay on OVCAR-3; 13.7 µM (inactive) with OVCAR-4; 4.9 µM (inactive) in the assay on PC-3; 20.3 µM (inactive) with SF-539; 61.8 µM (inactive) in the assay with SK-OV-3. In addition, in the assay on UO-31, the GI50 was 53.2 µM (inactive).
For `CCCCCCCN(CCCCCCC)CC(O)c1cc2ccccc2c2cc(Br)ccc12` (stereo not drawn), the GI50 in the assay with 786-0 was 31.6 µM (inactive); in the assay on COLO 205, 24.8 µM (inactive); in the assay on EKVX it was 25.8 µM (inactive); in the assay with HCT-116 it was 21.1 µM (inactive); in the assay on HCT-15, 7.53 µM; in the assay with HOP-92 it was 19.2 µM (inactive). The GI50 in the assay with HT-29 was 67 µM (inactive); in the assay with K562 it was 30.7 µM (inactive); in the assay on LOX IMVI it was 14.2 µM (inactive); in the assay on MDA-MB-435, 33.1 µM (inactive); with MDA-N, 28.5 µM (inactive); in the assay with NCI-H460 it was 23.1 µM (inactive). Besides, the GI50 with OVCAR-3 is 17.9 µM (inactive); in the assay with OVCAR-4, > 100 µM (inactive); in the assay on PC-3 it was 24.2 µM (inactive); in the assay with SF-295, > 10 µM (inactive); in the assay on SF-539, > 100 µM (inactive); with SK-OV-3, > 100 µM (inactive). For the same molecule, the GI50 in the assay with UO-31 was 57.1 µM (inactive).

Source of the values: ChEMBL document CHEMBL1201862, “PubChem BioAssay data set” (2004).
